Experimental data as given in PubChem BioAssay (NCI).
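Step 1: Grow cells in 96-well plates. Step 2: Expose to compound for 48 hours at 5 concentrations. Step 3: Interpolate endpoints linearly; if unreached, use highest concentration. TGI marks complete inhibition of growth.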

Tests used:
Assay in all cases: NCI-60 cell line screen, 48 h
[1] = test system: MDA-MB-435
[2] = test system: KM12 colon
[3] = test system: U251 CNS
[4] = test system: SF-268 CNS
[5] = test system: UACC-62 melanoma
[6] = test system: ACHN renal
[7] = test system: SNB-75 CNS
[8] = test system: HCT-15 colon
[9] = test system: OVCAR-8 ovarian
[10] = test system: EKVX NSCLC
[11] = test system: MCF7 breast
[12] = test system: BT-549 breast
[13] = test system: SK-OV-3 ovarian
[14] = test system: IGROV1 ovarian
[15] = test system: HCT-116 colon
[16] = test system: CCRF-CEM leukemia
[17] = test system: HOP-62 NSCLC
[18] = test system: SK-MEL-5 melanoma
[19] = test system: PC-3 prostate
[20] = test system: OVCAR-5 ovarian
[21] = test system: UACC-257 melanoma
[22] = test system: SN12C renal
[23] = test system: T-47D breast
[24] = test system: NCI-H23 lung
[25] = test system: DU-145 prostate
[26] = test system: CAKI-1 renal
[27] = test system: K-562 leukemia
[28] = test system: MOLT-4 leukemia
[29] = test system: A549 NSCLC
[30] = test system: HOP-92 NSCLC
[31] = test system: RXF 393 renal
[32] = test system: HS 578T breast
[33] = test system: NCI-H226 lung
[34] = test system: TK-10 renal
[35] = test system: UO-31 renal
[36] = test system: HT29 colon
[37] = test system: SNB-19 CNS
[38] = test system: NCI-H460 lung
[39] = test system: MDA-MB-231 breast
[40] = test system: SW-620 colon
[41] = test system: COLO 205 colon
[42] = test system: SF-295 CNS
[43] = test system: NCI/ADR-RES ovarian
[44] = test system: MALME-3M melanoma
[45] = test system: SF-539 CNS
[46] = test system: M14 melanoma
[47] = test system: NCI-H522 lung
[48] = test system: OVCAR-3 ovarian
[49] = test system: 786-0 renal
[50] = test system: LOX IMVI melanoma
[51] = test system: HL-60(TB) leukemia
[52] = test system: RPMI-8226 leukemia
[53] = test system: OVCAR-4 ovarian
[54] = test system: MDA-N
[55] = test system: A498 renal
[56] = test system: SK-MEL-2 melanoma
[57] = test system: SR leukemia
[58] = test system: SK-MEL-28 melanoma
[59] = test system: HCC-2998 colon

## CSc1nnc(SC)nn1
[1]
  TGI: 32.4 µM
[2]
  TGI: 30 µM
[3]
  TGI: 41.8 µM
[4]
  TGI: 29.4 µM
[5]
  TGI: 34 µM
[6]
  TGI: 30.5 µM
[7]
  TGI: 31.2 µM
[8]
  TGI: 35.2 µM
[9]
  TGI: 35.9 µM
[10]
  TGI: 30.8 µM
[11]
  TGI: 32.7 µM
[12]
  TGI: 29.7 µM
[13]
  TGI: 49 µM
[14]
  TGI: 31 µM
[15]
  TGI: 23.9 µM
[16]
  TGI: 4.53 µM
[17]
  TGI: 29.1 µM
[18]
  TGI: 29.6 µM
[19]
  TGI: 33.7 µM
[20]
  TGI: 33.6 µM
[21]
  TGI: 30.3 µM
[22]
  TGI: 39.7 µM
[23]
  TGI: > 100 µM
[24]
  TGI: 49.4 µM
[25]
  TGI: 45.4 µM
[26]
  TGI: 31.4 µM
[27]
  TGI: 27.4 µM
[28]
  TGI: 2.37 µM
[29]
  TGI: 43.3 µM
[30]
  TGI: 14.8 µM
[31]
  TGI: 30.3 µM
[32]
  TGI: 77.1 µM
[33]
  TGI: 96.5 µM
[34]
  TGI: 25.8 µM
[35]
  TGI: 29.5 µM
[36]
  TGI: 36.5 µM
[37]
  TGI: 43.3 µM
[38]
  TGI: 32.9 µM
[39]
  TGI: 39.7 µM
[40]
  TGI: 35.5 µM
[41]
  TGI: 32.7 µM
[42]
  TGI: 33.9 µM
[43]
  TGI: 31.9 µM
[44]
  TGI: 27 µM
[45]
  TGI: 32.1 µM
[46]
  TGI: 28.9 µM
[47]
  TGI: 31.6 µM
[48]
  TGI: 31.6 µM
[49]
  TGI: 27.1 µM
[50]
  TGI: 38 µM
[51]
  TGI: 11.6 µM
[52]
  TGI: 32.7 µM
[53]
  TGI: 32.5 µM
[54]
  TGI: 30.1 µM
[55]
  TGI: > 100 µM

## Cc1ccc2c3c1O[C@H]1c4[nH]c5ccccc5c4C[C@@]4(O)[C@@H](C2)N(CC2CC2)CC[C@]314
[56]
  TGI: 31.6 µM
[1]
  TGI: 26.8 µM
[2]
  TGI: 32.5 µM
[3]
  TGI: 28.2 µM
[4]
  TGI: 30.1 µM
[5]
  TGI: 30.1 µM
[6]
  TGI: 30.9 µM
[57]
  TGI: 46.8 µM
[58]
  TGI: 36.4 µM
[8]
  TGI: 38.1 µM
[9]
  TGI: 34.3 µM
[10]
  TGI: 32.9 µM
[11]
  TGI: 31.5 µM
[12]
  TGI: 35.7 µM
[13]
  TGI: 31.5 µM
[14]
  TGI: 32 µM
[15]
  TGI: 27.9 µM
[16]
  TGI: 24.6 µM
[17]
  TGI: 33.3 µM
[18]
  TGI: 27.8 µM
[19]
  TGI: 24.9 µM
[20]
  TGI: 35.1 µM
[21]
  TGI: 32.8 µM
[22]
  TGI: 29.1 µM
[23]
  TGI: 36.6 µM
[24]
  TGI: 39.5 µM
[25]
  TGI: 30.5 µM
[26]
  TGI: 30.4 µM
[59]
  TGI: 12.5 µM
[27]
  TGI: 61.1 µM
[28]
  TGI: 32.9 µM
[29]
  TGI: 29.7 µM
[30]
  TGI: 27.5 µM
[31]
  TGI: 20.8 µM
[33]
  TGI: 30.5 µM
[34]
  TGI: 31.7 µM
[35]
  TGI: 26.8 µM
[36]
  TGI: 18.7 µM
[37]
  TGI: 32.2 µM
[38]
  TGI: 30.5 µM
[39]
  TGI: 35.6 µM
[40]
  TGI: 25.4 µM
[41]
  TGI: 30.8 µM
[42]
  TGI: 31.1 µM
[43]
  TGI: 42.2 µM
[44]
  TGI: 28.4 µM
[45]
  TGI: 31.6 µM
[46]
  TGI: 32.4 µM
[47]
  TGI: 29.5 µM
[48]
  TGI: 27.5 µM
[49]
  TGI: 27.1 µM
[50]
  TGI: 33.1 µM
[51]
  TGI: 22.4 µM
[52]
  TGI: 29.4 µM
[53]
  TGI: 17.8 µM
[54]
  TGI: 30.5 µM
[55]
  TGI: 31.8 µM
